# From paper PMC9774128, “New Insights into the Mechanism of Antibacterial Action of Synthetic Peptide Mo-CBP3-PepI against Klebsiella pneumoniae” (Antibiotics, 2022)
# How the values were obtained:
# K. pneumoniae biofilm = experiment: Antibiofilm assay: inhibition of biofilm formation, crystal violet; type: cell-based, Klebsiella pneumoniae; conditions: peptide 31.25 μg mL^−1; 48 h, 37 °C; crystal violet O.D. 600 nm; triplicate, three independent experiments
# Procedure: The antibiofilm assay was conducted in flat-bottom 96-well polystyrene microplates as described by Neto et al.. A single colony of K. pneumoniae was collected in stock Petri plates containing inoculated Mueller–Hinton agar. The colony was used as inoculum for 5 mL of Mueller–Hinton broth, and the media was incubated for 24 h in the dark at 37 °C. In sequence, the O.D. of the cell suspension was measured using a microplate reader (Epoch, BioTek) and adjusted to 0.1 at 630 nm with Mueller–Hinton broth. For the inhibition of biofilm formation, 50 µL of the cell ([…]) suspension was incubated with 50 µL of the peptide (31.25 μg mL^−1) solution and 50 µL of the respective controls described above. The incubation lasted for 48 h at 37 °C. For the biofilm degradation assay, 50 µL of the cell suspension was incubated for 24 h at 37 °C. After this, 50 µL of the peptide solution and the respective controls were added to the wells containing the preformed biofilm and incubated for 24 h at 37 °C.
# After incubation, both wells of biofilm formation inhibition and biofilm degradation were washed once with a sterile saline solution. Then, the wells were fixated with 100 µL methanol 99% for 15 min. […] Then, the crystals stained on the biofilm were diluted with 200 µL of 33% acetic acid, and the O.D was measured using a wavelength of 600 nm. […]
# [1] = test system: K. pneumoniae cell membrane; experiment: Cell membrane integrity by propidium iodide uptake; type: cell-based, Klebsiella pneumoniae; conditions: peptide 31.25 µg mL^−1, 24 h
# Procedure: The assay was conducted as described by Oliveira et al., with some modifications. Preparation of cell suspension was completed as mentioned above. After, 50 µL of the diluted bacteria solution was incubated in the dark for 24 h, at 37 °C, with 50 µL of the peptide solution (31.25 µg mL^−1) previously prepared with 5% of dimethyl sulfoxide (DMSO) diluted in 0.15 M NaCl solution. The assay was conducted in 1.5 mL microtubes. The diluted bacteria solution was incubated only with the DMSO-NaCl solution for control. After incubation, the microtubes were centrifuged (5000× g, 5 min, 4 °C) and washed three times. Next, the washed cells were incubated with 1 µM propidium iodide for 30 min, in the dark, at 37 °C. After this, the cells were washed two times with saline solution to remove the excess fluorophore and observed with a fluorescence microscope (Olympus System BX 60; excitation wavelength, 488 nm; emission wavelength, […]).
# K. pneumoniae cells = conditions: 31.25 µg mL^−1, 24 h
# Procedure: After this, samples were washed twice with 50 mM sodium acetate pH 5.2, with centrifugations at 12,000× g for 15 min at 4 °C. At the end of the washes, the samples were resuspended in 300 µL in the same buffer and frozen for 24 h. Then, the frozen samples were sonicated for 30 min to break the cell wall and membrane, the samples were centrifuged again, and the supernatant was collected.
# After that, the Bradford assay was performed to determine the protein concentration in the samples. This step was followed by adding a 10 mM DTT solution under incubation for 1 h at 37 °C to reduce the proteins. Then iodoacetamide was added to a final concentration of 15 mM and incubated for 30 min in a dark room to alkylate the reduced proteins. The proteins reduced and alkylated were digested using trypsin gold (Promega, Madison, WI, USA) to a final concentration of 1:20 (w/w) as described by manufacturers. The trypsin digestion was performed for 16 h at 37 °C. Finally, the samples were dried in a speed vacuum (Eppendorf, Hamburg, Germany) for 3 h and analyzed by ESI-QUAD-TOF mass spectrometer.
# Tandem mass spectra were extracted into PKL files for both samples, and the proteins were searched using MASCOT MS/MS ions search from MATRIX SCIENCE (https://www.matrixscience.com/cgi/search_form.pl?FORMVER=2&SEARCH=MIS (accessed on 15 September 2022)) against UP625_E_coli_K12 (AA), UP808_K_pneumoniae and SwissProt databases (the taxonomy was set in bacteria). The terms for the search were: fixed modifications to Carbamidomethyl (C); variable modifications to Oxidation […]; the Peptide tolerance was set to 1.2 DA (with 1% FDR); the MS/MS tolerance was set to 0.6 DA; the peptide charge was set to 2+, 3+, and 4+; and finally, the instrument was set to ESI-QUAD-TOF. The proteins identified in both samples were searched for in UNIPROT and separated into 3 sets (unique from control, unique from the cells treated with Mo-CBP3-PepI, and Mo-CBP3-PepI x control shared proteins).
# The proteins with a fold-change value ≥ 1.5 (p < 0.05, Tukey’s test) that were up-accumulated (increased the abundance), and proteins with a fold-change value ≤ 0.5 (p < 0.05, Tukey’s test) that were down-accumulated (decreased the abundance) were taken into consideration for comparisons. For each protein, its corresponding FASTA file was downloaded. Then, the blast2go program (https://www.blast2go.com/ (accessed on 30 September 2022)) was used to categorize the proteins detected by Gene Ontology (GO) annotation according to Molecular function, […], and subcellular location.
sequence,measurement,setting,value
CPAIQRCC [Mo-CBP3-PepI],Inhibition of Biofilm Formation (%),K. pneumoniae biofilm,11.87 ± 0.001%
same,pore size indicated by movement of PI,[1],692.50 Da
same,membrane pore formation (PI uptake),"[1]; 37 °C, 1 µM PI 30 min, fluorescence microscopy",induced the pore formation
same,Fold Change Mo-CBP3-PepI vs. DMSO: Methylenetetrahydrofolate--tRNA-(uracil-5-)-methyltransferase TrmFO,K. pneumoniae cells; A4WRQ2,0.948
same,Fold Change Mo-CBP3-PepI vs. DMSO: 50S ribosomal protein L22,K. pneumoniae cells; A5IYY1,0.187
same,Fold Change Mo-CBP3-PepI vs. DMSO: Phosphoenolpyruvate carboxykinase (ATP),K. pneumoniae cells; A8AQV7,0.990
same,Fold Change Mo-CBP3-PepI vs. DMSO: Xylose isomerase,K. pneumoniae cells; B5ZQV6,1.062
same,Fold Change Mo-CBP3-PepI vs. DMSO: Pantothenate synthetase,K. pneumoniae cells; B8I2Z3,1.142
same,Fold Change Mo-CBP3-PepI vs. DMSO: Chaperonin GroEL,K. pneumoniae cells; P0A6F5,1.444
same,Fold Change Mo-CBP3-PepI vs. DMSO: Pantothenate kinase,K. pneumoniae cells; P0A6I3,0.548
same,Fold Change Mo-CBP3-PepI vs. DMSO: HTH-type transcriptional regulator ArgP,K. pneumoniae cells; P0A8S1,2.364
same,Fold Change Mo-CBP3-PepI vs. DMSO: 50S ribosomal protein L7/L12,K. pneumoniae cells; P0A466,1.979
same,Fold Change Mo-CBP3-PepI vs. DMSO: Zinc resistance-associated protein,K. pneumoniae cells; P0AAA9,1.682
same,Fold Change Mo-CBP3-PepI vs. DMSO: Cysteine synthase A,K. pneumoniae cells; P0ABK5,0.596
same,Fold Change Mo-CBP3-PepI vs. DMSO: Fimbriae Z protein,K. pneumoniae cells; P0AEL8,0.690
same,Fold Change Mo-CBP3-PepI vs. DMSO: Ferrichrome outer membrane transporter/phage receptor,K. pneumoniae cells; P06971,1.063
same,Fold Change Mo-CBP3-PepI vs. DMSO: Iron (3+)-hydroxamate import system permease protein FhuB,K. pneumoniae cells; P06972,0.948
same,Fold Change Mo-CBP3-PepI vs. DMSO: 2-succinyl-5-enolpyruvyl-6-hydroxy-3-cyclohexene-1-carboxylate synthase,K. pneumoniae cells; P17109,3.486
same,Fold Change Mo-CBP3-PepI vs. DMSO: Sensor protein PhoQ,K. pneumoniae cells; P23837,0.823
same,Fold Change Mo-CBP3-PepI vs. DMSO: Lipopolysaccharide core biosynthesis protein RfaZ,K. pneumoniae cells; P27241,2.038
same,Fold Change Mo-CBP3-PepI vs. DMSO: Inner membrane protein YhjD,K. pneumoniae cells; P37642,0.362
same,Fold Change Mo-CBP3-PepI vs. DMSO: Gamma-glutamylputrescine oxidoreductase,K. pneumoniae cells; P37906,0.985
same,Fold Change Mo-CBP3-PepI vs. DMSO: Endonuclease 8,K. pneumoniae cells; P50465,0.287
same,Fold Change Mo-CBP3-PepI vs. DMSO: Sensor histidine kinase GlrK,K. pneumoniae cells; P52101,0.752
same,Fold Change Mo-CBP3-PepI vs. DMSO: 2.3-bisphosphoglycerate-dependent phosphoglycerate mutase,K. pneumoniae cells; P62707,0.519
same,Fold Change Mo-CBP3-PepI vs. DMSO: Low affinity potassium transport system protein kup,K. pneumoniae cells; P63183,1.704
same,Fold Change Mo-CBP3-PepI vs. DMSO: Peptide methionine sulfoxide reductase MsrB,K. pneumoniae cells; P75129,14.104
same,Fold Change Mo-CBP3-PepI vs. DMSO: Probable cytosol aminopeptidase,K. pneumoniae cells; P75206,2.097
same,Fold Change Mo-CBP3-PepI vs. DMSO: tRNA uridine 5-carboxymethylaminomethyl modification enzyme MnmG,K. pneumoniae cells; P75221,0.487
same,Fold Change Mo-CBP3-PepI vs. DMSO: Phosphate acyltransferase,K. pneumoniae cells; P75232,3.096
same,Fold Change Mo-CBP3-PepI vs. DMSO: Putative ABC transporter ATP-binding protein MPN_334,K. pneumoniae cells; P75444,1.336
same,Fold Change Mo-CBP3-PepI vs. DMSO: Putative acetyltransferase MPN_114,K. pneumoniae cells; P75448,1.703
same,Fold Change Mo-CBP3-PepI vs. DMSO: Cytadherence high molecular weight protein 2,K. pneumoniae cells; P75471,1.682
same,Fold Change Mo-CBP3-PepI vs. DMSO: Oligopeptide transport ATP-binding protein OppD,K. pneumoniae cells; P75552,0.948
same,Fold Change Mo-CBP3-PepI vs. DMSO: Phenylacetate-coenzyme A ligase,K. pneumoniae cells; P76085,1.666
same,Fold Change Mo-CBP3-PepI vs. DMSO: Sensor histidine kinase HprS,K. pneumoniae cells; P76339,0.213
same,Fold Change Mo-CBP3-PepI vs. DMSO: UDP-glucose 6-dehydrogenase,K. pneumoniae cells; P76373,0.902
same,Fold Change Mo-CBP3-PepI vs. DMSO: Cation efflux system protein CusC,K. pneumoniae cells; P77211,0.920
same,Fold Change Mo-CBP3-PepI vs. DMSO: Glycerate 3-kinase,K. pneumoniae cells; P77364,0.745
same,Fold Change Mo-CBP3-PepI vs. DMSO: Glutathione S-transferase YfcF,K. pneumoniae cells; P77544,0.273
same,Fold Change Mo-CBP3-PepI vs. DMSO: HTH-type transcriptional regulator SutR,K. pneumoniae cells; P77626,2.566
same,Fold Change Mo-CBP3-PepI vs. DMSO: Lon protease,K. pneumoniae cells; P78025,0.342
same,Fold Change Mo-CBP3-PepI vs. DMSO: Pyruvate kinase,K. pneumoniae cells; P78031,3.139
same,Fold Change Mo-CBP3-PepI vs. DMSO: Undecaprenyl-diphosphatase,K. pneumoniae cells; Q2KX31,1.340
same,Fold Change Mo-CBP3-PepI vs. DMSO: Periplasmic trehalase,K. pneumoniae cells; Q4UZ12,0.937
same,Fold Change Mo-CBP3-PepI vs. DMSO: GMP synthase (glutamine-hydrolyzing),K. pneumoniae cells; Q6APU2,4.596
same,Fold Change Mo-CBP3-PepI vs. DMSO: Elongation factor G,K. pneumoniae cells; Q7NAV3,0.234
same,Fold Change Mo-CBP3-PepI vs. DMSO: Diaminopimelate decarboxylase,K. pneumoniae cells; Q8K9C4,3.546
same,Fold Change Mo-CBP3-PepI vs. DMSO: Bifunctional protein FolD,K. pneumoniae cells; Q88WM8,0.726
same,Fold Change Mo-CBP3-PepI vs. DMSO: Mgp-operon protein 3,K. pneumoniae cells; Q50341,0.654
